PubChem BioAssay AID248 (DTP/NCI, 2004)
Values joined by “and” are separate entries in the source; they are usually repeats but may differ in a detail not shown here. Identical values can stand only once. Toxic doses and inconclusive results are not listed. Cut-off read from the data, not from the text of the source: active = T/C of 150% or more; inactive = T/C below 125%.

Tested on: L1210 leukemia ip in BDF1 mice, survival T/C
Assay: NCI In Vivo Anticancer Drug Screen. Data for tumor model L1210 Leukemia (intraperitoneal) in B6D2F1 (BDF1) mice
Conditions: endpoint: mean survival time, higher = longer survival
Procedure, shortened: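 Mice bearing the transplanted tumor received compound or vehicle. Survival of the treated group was divided by that of the vehicle-treated control group to give the ratio.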

[1] = dose: 100.0 mg/kg/injection, schedule: Q04DX003 (ip), vehicle: saline with Tween-80
[2] = dose: 200.0 mg/kg/injection, schedule: Q04DX003 (ip), vehicle: saline with Tween-80
[3] = dose: 400.0 mg/kg/injection, schedule: Q04DX003 (ip), vehicle: saline with Tween-80
[4] = dose: 50.0 mg/kg/injection, schedule: Q01DX009 (ip), vehicle: saline with Tween-80
[5] = dose: 100.0 mg/kg/injection, schedule: Q01DX009 (ip), vehicle: saline with Tween-80
[6] = dose: 100.0 mg/kg/injection, schedule: Q04DX003 (ip), vehicle: Klucel (hydroxypropylcellulose) (HPC)
[7] = dose: 200.0 mg/kg/injection, schedule: Q04DX003 (ip), vehicle: Klucel (hydroxypropylcellulose) (HPC)
[8] = dose: 400.0 mg/kg/injection, schedule: Q04DX003 (ip), vehicle: Klucel (hydroxypropylcellulose) (HPC)
[9] = dose: 100.0 mg/kg/injection, schedule: Q01DX009 (ip), vehicle: saline
[10] = dose: 200.0 mg/kg/injection, schedule: Q01DX009 (ip), vehicle: saline
[11] = dose: 12.5 mg/kg/injection, schedule: Q04DX002 (ip), vehicle: Klucel (hydroxypropylcellulose) (HPC)
[12] = dose: 25.0 mg/kg/injection, schedule: Q04DX002 (ip), vehicle: Klucel (hydroxypropylcellulose) (HPC)
[13] = dose: 100.0 mg/kg/injection, schedule: Q01DX001 (ip), vehicle: saline
[14] = dose: 200.0 mg/kg/injection, schedule: Q01DX001 (ip), vehicle: saline
[15] = dose: 100.0 mg/kg/injection, schedule: Q04DX002 (ip), vehicle: saline
[16] = dose: 200.0 mg/kg/injection, schedule: Q04DX002 (ip), vehicle: saline
[17] = dose: 400.0 mg/kg/injection, schedule: Q04DX002 (ip), vehicle: saline
[18] = dose: 25.0 mg/kg/injection, schedule: Q01DX001 (ip), vehicle: saline
[19] = dose: 50.0 mg/kg/injection, schedule: Q01DX001 (ip), vehicle: saline
[20] = dose: 50.0 mg/kg/injection, schedule: Q01DX009 (ip), vehicle: Klucel (hydroxypropylcellulose) (HPC)
[21] = dose: 100.0 mg/kg/injection, schedule: Q01DX009 (ip), vehicle: Klucel (hydroxypropylcellulose) (HPC)
[22] = dose: 200.0 mg/kg/injection, schedule: Q01DX009 (ip), vehicle: Klucel (hydroxypropylcellulose) (HPC)
[23] = dose: 400.0 mg/kg/injection, schedule: Q01DX009 (ip), vehicle: Klucel (hydroxypropylcellulose) (HPC)

Measured: T/C

CCOP(=S)(OCC)SCc1ccccc1
inactive: [1] 97 % of control | [2] 98 % of control | [3] 106 % of control

O=C(O)c1c(Cl)cccc1Cl
inactive: dose: 25.0 mg/kg/injection, schedule: Q01DX009 (ip), vehicle: saline with Tween-80 92 % of control | [4] 93 % of control | [5] 93 % of control and 87 % of control | [1] 98 % of control | [2] 95 % of control | [3] 95 % of control

CCC1OC2(C)CCCC1O2 (centres undefined)
inactive: dose: 25.0 mg/kg/injection, schedule: Q01DX001 (ip), vehicle: saline sonified 111 % of control | dose: 50.0 mg/kg/injection, schedule: Q01DX001 (ip), vehicle: saline sonified 101 % of control | dose: 100.0 mg/kg/injection, schedule: Q01DX001 (ip), vehicle: saline sonified 122 % of control

O=C(OCc1ccccc1)c1ccccc1
inactive: [5] 98 % of control | dose: 200.0 mg/kg/injection, schedule: Q01DX009 (ip), vehicle: saline with Tween-80 105 % of control | dose: 400.0 mg/kg/injection, schedule: Q01DX009 (ip), vehicle: saline with Tween-80 93 % of control

Cc1c(C)c2c(C(N)=O)c3ccccc3nc2c2ccccc12
inactive: dose: 50.0 mg/kg/injection, schedule: Q04DX003 (ip), vehicle: Klucel (hydroxypropylcellulose) (HPC) 100 % of control | [6] 100 % of control | [7] 92 % of control | [8] 97 % of control

O=C(Nc1ccccc1)OC1CCC2CC21 (centres undefined)
inactive: [4] 91 % of control | [5] 87 % of control

CCCCN(C)N=Nc1ccccc1C(=O)NN
inactive: dose: 100.0 mg/kg/injection, schedule: Q01DX001 (ip), vehicle: carboxymethylcellulose (CMC) 96 % of control | dose: 200.0 mg/kg/injection, schedule: Q01DX001 (ip), vehicle: carboxymethylcellulose (CMC) 107 % of control | dose: 400.0 mg/kg/injection, schedule: Q01DX001 (ip), vehicle: carboxymethylcellulose (CMC) 113 % of control

COc1ccc(C(Nc2ccc([N+](=O)[O-])cc2)P(=O)(c2ccccc2)c2ccccc2)cc1 (centres undefined)
inactive: [9] 102 % of control | [10] 95 % of control | dose: 400.0 mg/kg/injection, schedule: Q01DX009 (ip), vehicle: saline 106 % of control

Cc1cc(NC(C)C)c(C)cc1NC(C)C
inactive: [11] 93 % of control | [12] 96 % of control

NC1C2C3C=CC(C3)C12 (centres undefined)
inactive: [9] 107 % of control | [10] 100 % of control

CN(C)CC1(c2ccccc2)CC[N+](C)(C)C1 (centres undefined)
inactive: dose: 75.0 mg/kg/injection, schedule: Q01DX001 (ip), vehicle: saline 89 % of control | dose: 150.0 mg/kg/injection, schedule: Q01DX001 (ip), vehicle: saline 93 % of control

COc1cccc(NC(=S)NN)c1
inactive: [11] 92 % of control | [12] 117 % of control

COc1cc2c(O)cc(C(=O)OC(C)(C)C)c(-c3cc(OC)c(OC)c(OC)c3)c2cc1OC
inactive: [13] 97 % of control | [14] 95 % of control | dose: 400.0 mg/kg/injection, schedule: Q01DX001 (ip), vehicle: saline 89 % of control

O=[N+]([O-])c1ccccc1N=C=S
inactive: dose: 6.25 mg/kg/injection, schedule: Q01DX009 (ip), vehicle: gum acacia 102 % of control | dose: 12.5 mg/kg/injection, schedule: Q01DX009 (ip), vehicle: gum acacia 98 % of control | dose: 25.0 mg/kg/injection, schedule: Q01DX009 (ip), vehicle: gum acacia 97 % of control and 103 % of control | dose: 25.0 mg/kg/injection, schedule: Q04DX002 (ip), vehicle: gum acacia 98 % of control | dose: 50.0 mg/kg/injection, schedule: Q04DX002 (ip), vehicle: gum acacia 106 % of control | dose: 100.0 mg/kg/injection, schedule: Q04DX002 (ip), vehicle: gum acacia 103 % of control

COc1cc2c(cc1OC)-c1cc3cc(OC)c(OC)cc3c(CCC(=O)O)[n+]1CC2 (tested in a mixture with another compound)
inactive: [15] 117 % of control | [16] 103 % of control | [17] 109 % of control

C#CCN1C(=O)C(c2ccccc2)C2(CCN(C)CC2)C1=O (centres undefined)
inactive: dose: 100.0 mg/kg/injection, schedule: Q01DX001 (ip), vehicle: saline with Tween-80 105 % of control | dose: 200.0 mg/kg/injection, schedule: Q01DX001 (ip), vehicle: saline with Tween-80 108 % of control

C(=N/N=C(N/N=C/c1cccs1)N/N=C/c1cccs1)/c1cccs1
inactive: dose: 15.0 mg/kg/injection, schedule: Q01DX Z (ip), vehicle: carboxymethylcellulose (CMC) 97 % of control | dose: 30.0 mg/kg/injection, schedule: Q01DX Z (ip), vehicle: carboxymethylcellulose (CMC) 89 % of control | dose: 60.0 mg/kg/injection, schedule: Q01DX Z (ip), vehicle: carboxymethylcellulose (CMC) 97 % of control | dose: 120.0 mg/kg/injection, schedule: Q01DX Z (ip), vehicle: carboxymethylcellulose (CMC) 95 % of control and 97 % of control | dose: 240.0 mg/kg/injection, schedule: Q01DX Z (ip), vehicle: carboxymethylcellulose (CMC) 97 % of control | dose: 240.0 mg/kg/injection, schedule: Q01DX Z (oral), vehicle: carboxymethylcellulose (CMC) 107 % of control | dose: 480.0 mg/kg/injection, schedule: Q01DX Z (ip), vehicle: carboxymethylcellulose (CMC) 94 % of control | dose: 480.0 mg/kg/injection, schedule: Q01DX Z (oral), vehicle: carboxymethylcellulose (CMC) 107 % of control | dose: 960.0 mg/kg/injection, schedule: Q01DX Z (oral), vehicle: carboxymethylcellulose (CMC) 105 % of control | dose: 1920.0 mg/kg/injection, schedule: Q01DX Z (oral), vehicle: carboxymethylcellulose (CMC) 111 % of control

O=C1C(O)=C(c2ccccc2)C(=O)C(O)=C1c1ccccc1
inactive: [18] 95 % of control | dose: 25.0 mg/kg/injection, schedule: Q01DX009 (ip), vehicle: Klucel (hydroxypropylcellulose) (HPC) 100 % of control | [19] 104 % of control | [20] 105 % of control | dose: 50.0 mg/kg/injection, schedule: Q04DX002 (ip), vehicle: Klucel (hydroxypropylcellulose) (HPC) 98 % of control | [13] 96 % of control | dose: 100.0 mg/kg/injection, schedule: Q04DX002 (ip), vehicle: Klucel (hydroxypropylcellulose) (HPC) 120 % of control | [14] 104 % of control | dose: 200.0 mg/kg/injection, schedule: Q04DX002 (ip), vehicle: Klucel (hydroxypropylcellulose) (HPC) 91 % of control

O=C(Nc1cccc(Cl)c1)c1ccccc1
inactive: [21] 94 % of control | [6] 92 % of control | [22] 94 % of control | [7] 90 % of control | [23] 97 % of control | [8] 101 % of control

COc1ccc(NC(=O)Nc2ccccc2C(N)=O)cc1
inactive: [20] 93 % of control | [21] 93 % of control | [22] 96 % of control

CCCCCCCCc1ccccc1
inactive: [15] 99 % of control | [16] 96 % of control | [17] 99 % of control

[N-]=[N+]=Nc1nc2c(N)ncnc2n1C1OC(CO)C(O)C1O (centres undefined)
inactive: [18] 102 % of control | [19] 105 % of control | [13] 103 % of control

Cc1cc(C(=O)O)c(C)n1-c1cccc2ccccc12
inactive: dose: 75.0 mg/kg/injection, schedule: Q04DX003 (ip), vehicle: Klucel (hydroxypropylcellulose) (HPC) 98 % of control | [21] 102 % of control | dose: 150.0 mg/kg/injection, schedule: Q04DX003 (ip), vehicle: Klucel (hydroxypropylcellulose) (HPC) 98 % of control | [22] 108 % of control | dose: 300.0 mg/kg/injection, schedule: Q04DX003 (ip), vehicle: Klucel (hydroxypropylcellulose) (HPC) 97 % of control | [23] 113 % of control
